According to ChEMBL document CHEMBL1136856, “Synthesis of 5-isoxazol-5-yl-2'-deoxyuridines exhibiting antiviral activity against HSV and several RNA viruses” (Bioorg Med Chem Lett, 2009):
≈ marks a conversion by molar mass, not a printed value. Calls of active or inactive are those of the source. The rule behind the calls is not given here.

Legend:
Format in all cases: functional, organism-based
[1] = test system: Human alphaherpesvirus 2; experiment: Antiviral activity against HSV2 assessed as inhibition of virus-induced cytopathicity
[2] = test system: Human alphaherpesvirus 1; experiment: Antiviral activity against HSV1 assessed as inhibition of virus-induced cytopathicity
[3] = test system: Encephalomyocarditis virus; experiment: Antiviral activity against EMCV assessed as inhibition of virus-induced cytopathicity; conditions: Cardiovirus A
[4] = test system: Coronaviridae; experiment: Antiviral activity against Coronavirus assessed as inhibition of virus-induced cytopathicity
[5] = test system: Human immunodeficiency virus; experiment: Antiviral activity against HIV assessed as inhibition of virus-induced cytopathicity
[6] = test system: Influenza A virus; experiment: Antiviral activity against influenza A virus Panama assessed as inhibition of virus-induced cytopathicity
[7] = test system: Influenza A virus; experiment: Antiviral activity against influenza A virus Taiwan assessed as inhibition of virus-induced cytopathicity
[8] = test system: Coxsackievirus B3; experiment: Antiviral activity against Coxsackievirus B3 assessed as inhibition of virus-induced cytopathicity; conditions: Enterovirus B
[9] = test system: Influenza A virus; experiment: Antiviral activity against influenza A virus Seoul assessed as inhibition of virus-induced cytopathicity
[10] = test system: Vesicular stomatitis virus; experiment: Antiviral activity against VSV assessed as inhibition of virus-induced cytopathicity

Nc1nc2c(ncn2COCCO)c(=O)[nH]1 [ACYCLOVIR]
EC50 [1]: 0.36 µg/mL (≈ 1.6 µM) | EC50 [2]: 0.18 µg/mL (≈ 0.799 µM)

NC(=O)c1ncn([C@@H]2O[C@H](CO)[C@@H](O)[C@H]2O)n1 [RIBAVIRIN]
EC50 [3]: 0.02 µg/mL (≈ 0.0819 µM)

CC(=O)OC[C@H]1O[C@@H](n2cc(-c3cc(-c4ccc(C(C)(C)C)cc4)no3)c(=O)[nH]c2=O)C[C@@H]1OC(C)=O
Activity [4]: inactive | Activity [5]: inactive | Activity [6]: inactive | Activity [7]: inactive | EC50 [3]: 0.01 µg/mL (≈ 0.0195 µM) | EC50 [8]: 0.01 µg/mL (≈ 0.0195 µM) | EC50 [1]: 0.03 µg/mL (≈ 0.0586 µM) | Activity [9]: inactive | EC50 [2]: > 0.06 µg/mL | EC50 [10]: 0.03 µg/mL (≈ 0.0586 µM)

Nc1ccn([C@@H]2O[C@H](CO)[C@@H](O)[C@@H]2O)c(=O)n1 [CYTARABINE]
EC50 [1]: 0.52 µg/mL (≈ 2.14 µM) | EC50 [2]: 0.2 µg/mL (≈ 0.822 µM)

CC(=O)OC[C@H]1O[C@@H](n2cc(-c3cc(-c4ccc(C(C)C)cc4)no3)c(=O)[nH]c2=O)C[C@@H]1OC(C)=O
Activity [4]: inactive | Activity [5]: inactive | Activity [6]: inactive | Activity [7]: inactive | EC50 [3]: 0.01 µg/mL (≈ 0.0201 µM) | EC50 [8]: 0.01 µg/mL (≈ 0.0201 µM) | EC50 [1]: 0.07 µg/mL (≈ 0.141 µM) | Activity [9]: inactive | EC50 [2]: 0.08 µg/mL (≈ 0.161 µM) | EC50 [10]: 0.03 µg/mL (≈ 0.0603 µM)

CC(C)c1ccc(-c2cc(-c3cn([C@H]4C[C@H](O)[C@@H](CO)O4)c(=O)[nH]c3=O)on2)cc1
Activity [4]: inactive | Activity [5]: inactive | Activity [6]: inactive | Activity [7]: inactive | EC50 [3]: 0.02 µg/mL (≈ 0.0484 µM) | EC50 [8]: 0.03 µg/mL (≈ 0.0726 µM) | EC50 [1]: 0.09 µg/mL (≈ 0.218 µM) | Activity [9]: inactive | EC50 [2]: 0.09 µg/mL (≈ 0.218 µM) | EC50 [10]: > 0.07 µg/mL
